This note sets out measurements from ChEMBL document CHEMBL1201862, “PubChem BioAssay data set” (2004).

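Method: 48-hour compound exposure of cells in 96-well plates, five concentrations, linear interpolation of endpoints. GI50 is the concentration that inhibits growth by half.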 Active and inactive are the calls of the source. No stated cut-off is given here; in the data, active = GI50 up to about 1.1 µM and inactive = higher.

Among the test systems are HOP-92; IGROV-1; SR; K562; SK-MEL-5; UACC-257; NCI-H23; A549; SF-539; MOLT-4; LXFL 529; ACHN; CCRF-CEM; A498; RXF 393.
Assay in all cases: NCI anticancer screen, dose series, 48 h

In the case of `COc1ccc(-c2cn3ccsc3n2)cc1`, the GI50 in the test with HOP-92 was > 100 µM (inactive); in the test with IGROV-1, > 100 µM (inactive); with SR, 15.9 µM (inactive); in the test on K562 it was 55.2 µM (inactive); in the test on SK-MEL-5, > 100 µM (inactive); in the test with UACC-257, > 100 µM (inactive). The GI50 in the test with NCI-H23 was > 100 µM (inactive); in the test with A549, > 100 µM (inactive); with SF-539 it was 75.9 µM (inactive); in the test with MOLT-4 it was 97.7 µM (inactive); in the test with LXFL 529, > 100 µM (inactive); in the test on ACHN it was > 100 µM (inactive). Moreover, in the test on CCRF-CEM, the GI50 is 64 µM (inactive).
On to `O=C(CC(=O)Nc1ccccc1O)Nc1ccccc1O`, for which the GI50 is > 100 µM (inactive) with HOP-92; 37.4 µM (inactive) in the test with IGROV-1; 6.79 µM (inactive) in the test with K562; 10 µM (inactive) in the test with SK-MEL-5; 15.5 µM (inactive) in the test on UACC-257; 22.2 µM (inactive) with NCI-H23. In addition, the GI50 was 29.9 µM (inactive) in the test on A549; 19.1 µM (inactive) in the test with SF-539; 5.62 µM (inactive) with MOLT-4; > 100 µM (inactive) in the test with A498; 8.91 µM (inactive) with LXFL 529; 9.86 µM (inactive) in the test with ACHN. Moreover, the GI50 with CCRF-CEM was 3.96 µM (inactive).
As for `O=[N+]([O-])c1ccccc1C1N2CCCCC2[C@@H]2c3[nH]c4ccccc4c3CCN12` (stereo partly drawn), the GI50 with HOP-92 was 15.1 µM (inactive); with IGROV-1, 15.6 µM (inactive); in the test on K562, 3.57 µM (inactive); in the test on SK-MEL-5 it was 13.4 µM (inactive); in the test on UACC-257, 13.7 µM (inactive); in the test with RXF 393 it was 12.6 µM (inactive). In addition, the GI50 in the test on NCI-H23 is 14.4 µM (inactive); with A549, 9.84 µM (inactive); with SF-539, 12.2 µM (inactive); with MOLT-4, 5.78 µM (inactive); in the test on A498, 12.6 µM (inactive); in the test on LXFL 529, 10.8 µM (inactive). Moreover, the GI50 in the test on ACHN was 12.4 µM (inactive); in the test with CCRF-CEM, 10.4 µM (inactive).
As for `O=C(Cc1nc2ccccc2s1)Nc1cccc(C(F)(F)F)c1`, the GI50 is 13 µM (inactive) in the test on IGROV-1; 9.16 µM (inactive) in the test on K562; 16.5 µM (inactive) in the test with SK-MEL-5; 14.4 µM (inactive) in the test with UACC-257; 18.2 µM (inactive) in the test on RXF 393; 14.8 µM (inactive) with NCI-H23. Besides, the GI50 was 21 µM (inactive) with A549; 18.8 µM (inactive) with SF-539; 6.89 µM (inactive) in the test with MOLT-4; 5.3 µM (inactive) in the test with A498; 13.4 µM (inactive) in the test on LXFL 529; 13.6 µM (inactive) with ACHN. Further, in the test with CCRF-CEM, the GI50 was 1.81 µM (inactive).
For the compound `FC(F)(F)P1C2C=CC(CC2)C1(F)F` (stereo not drawn), the GI50 in the test on IGROV-1, with K562, with SK-MEL-5, with UACC-257, with RXF 393 and with NCI-H23 was > 100 µM (inactive) throughout. Further, the GI50 in the test with A549, in the test on SF-539, in the test on MOLT-4, with A498, in the test with LXFL 529 and with ACHN was > 100 µM (inactive) each time. In addition, the GI50 with CCRF-CEM is > 100 µM (inactive).
With `CCOC(=O)c1ccc(/C(C)=N/NC(N)=S)cc1`, the GI50 with HOP-92, in the test with IGROV-1, in the test on K562, in the test with SK-MEL-5, in the test with RXF 393 and with NCI-H23 was > 100 µM (inactive) throughout. Besides, the GI50 with A549, with SF-539, in the test with MOLT-4, in the test on A498, in the test on LXFL 529 and with ACHN was > 100 µM (inactive) each time. The GI50 in the test with CCRF-CEM is > 100 µM (inactive).
Take `CCCCOCN/C(N)=N/C#N`: the GI50 was > 100 µM (inactive) in the test with HOP-92; > 100 µM (inactive) with IGROV-1; 19.6 µM (inactive) in the test on SR; 73.6 µM (inactive) in the test with K562; > 100 µM (inactive) in the test on SK-MEL-5; > 100 µM (inactive) in the test on UACC-257. Besides, the GI50 in the test on RXF 393, with NCI-H23, in the test with A549, in the test on SF-539, with MOLT-4 and with A498 was > 100 µM (inactive) throughout. Further, the GI50 in the test with LXFL 529 and in the test with ACHN was > 100 µM (inactive) each time.
As for `NC(=O)C#CC#CC#CCO`, the GI50 in the test on HOP-92 was 2.28 µM (inactive); in the test on IGROV-1 it was 2.72 µM (inactive); with SR, 2.47 µM (inactive); in the test with K562, 2.04 µM (inactive); in the test with SK-MEL-5, 1.98 µM (inactive); in the test with UACC-257 it was 2.33 µM (inactive). Moreover, the GI50 with RXF 393 was 2.09 µM (inactive); with NCI-H23, 2.12 µM (inactive); in the test with A549, 4.39 µM (inactive); in the test with MOLT-4, 0.998 µM (active); with A498, 4.4 µM (inactive); in the test with LXFL 529, 1.14 µM (inactive). Besides, the results for the GI50 in the test with ACHN and with CCRF-CEM were 1.34 µM (inactive) and 0.843 µM (active), respectively.
Regarding `CCOC(=O)NC(=O)c1cn(CCCOC(=O)CCCCCCCCCCC(=O)OCCCn2cc(C(=O)NC(=O)OCC)c(=O)[nH]c2=O)c(=O)[nH]c1=O`, the GI50 in the test with HOP-92, with IGROV-1, in the test with SR, in the test with K562, with SK-MEL-5 and in the test on UACC-257 was > 100 µM (inactive) in each case. For the same compound, the GI50 with RXF 393 is > 10 µM (inactive); in the test with NCI-H23, > 100 µM (inactive); in the test with A549, > 100 µM (inactive); with SF-539, > 100 µM (inactive); in the test with MOLT-4, > 100 µM (inactive); in the test with LXFL 529, > 100 µM (inactive). Further, the GI50 with ACHN and in the test with CCRF-CEM was > 100 µM (inactive) in each case.
With `CC(C)OP(=O)(OC(C)C)/C(N)=N/Nc1ccc([N+](=O)[O-])cc1`, the GI50 with HOP-92 is 46.7 µM (inactive); in the test on SR, > 100 µM (inactive); in the test with K562, 77.6 µM (inactive); in the test with SK-MEL-5 it was 60.1 µM (inactive); in the test with UACC-257, 25.1 µM (inactive); in the test on NCI-H23, 63 µM (inactive). The GI50 in the test with A549 is 76.2 µM (inactive); with SF-539, > 100 µM (inactive); with MOLT-4, 52.1 µM (inactive); in the test on LXFL 529, 66.2 µM (inactive); in the test on ACHN, 69.8 µM (inactive); in the test with CCRF-CEM it was 98.2 µM (inactive).
As for `CCc1cccc(C(C)C)c1NC(=O)/C(=N\NC(N)=O)C(C(=O)OC)c1cnc2ccccc2n1` (stereo not drawn), the GI50 in the test on IGROV-1 was 40.7 µM (inactive); with SR, 46.5 µM (inactive); in the test on K562, 37.2 µM (inactive); in the test on SK-MEL-5 it was 18.7 µM (inactive); in the test on UACC-257 it was 32.1 µM (inactive); in the test with RXF 393, 50 µM (inactive). Further, the GI50 was 24.8 µM (inactive) in the test with NCI-H23; 24.8 µM (inactive) with A549; 52.7 µM (inactive) in the test with SF-539; 32.9 µM (inactive) in the test on MOLT-4; > 100 µM (inactive) with A498; 52.4 µM (inactive) in the test with LXFL 529. The GI50 in the test on ACHN is 62.7 µM (inactive); with CCRF-CEM, 39 µM (inactive).
For `O=C(/C=C(\O)C(=O)O)/C=C(\O)c1ccccc1`, the GI50 was > 4.65 µM (inactive) with IGROV-1; > 100 µM (inactive) with SR; > 4.65 µM (inactive) with K562; > 4.65 µM (inactive) in the test with UACC-257; > 100 µM (inactive) in the test with RXF 393; > 4.65 µM (inactive) in the test with A549. In addition, the GI50 in the test on MOLT-4 was > 100 µM (inactive); in the test on A498, > 4.65 µM (inactive); in the test on LXFL 529 it was > 4.65 µM (inactive); in the test with ACHN it was > 4.65 µM (inactive); with CCRF-CEM, > 4.65 µM (inactive).
Take `c1ccc(C2N3CCCCC3[C@@H]3c4[nH]c5ccccc5c4CCN23)nc1` (stereo partly drawn): the GI50 with HOP-92 was > 100 µM (inactive); in the test on IGROV-1, > 100 µM (inactive); in the test with K562, 94 µM (inactive); in the test on SK-MEL-5, > 100 µM (inactive); in the test with UACC-257, > 100 µM (inactive); in the test on RXF 393 it was 33.3 µM (inactive). The GI50 with NCI-H23, in the test on A549, with SF-539, in the test with MOLT-4, with A498 and in the test on LXFL 529 was > 100 µM (inactive) each time. The GI50 in the test on ACHN and in the test with CCRF-CEM was > 100 µM (inactive) in each case.
For the compound `Clc1ccc(Cc2nc3ccccc3s2)c(Cl)c1`, the GI50 in the test on IGROV-1 is 14.8 µM (inactive); in the test on K562 it was 14.8 µM (inactive); in the test with SK-MEL-5 it was 17.5 µM (inactive); with UACC-257, 17.5 µM (inactive); in the test with RXF 393, 20.9 µM (inactive); with NCI-H23, > 10 µM (inactive). For the same compound, the GI50 in the test on A549 is 19.7 µM (inactive); in the test with SF-539, 3.65 µM (inactive); in the test with MOLT-4 it was 14.3 µM (inactive); in the test with A498 it was 17.2 µM (inactive); in the test with LXFL 529 it was 16.8 µM (inactive); in the test on ACHN it was 17.5 µM (inactive). The GI50 in the test with CCRF-CEM was 5.21 µM (inactive).
On to `O=[N+]([O-])c1cccc(C(O)/C(=N/Nc2ccccc2)C2Nc3ccc([N+](=O)[O-])cc3N=C2O)c1` (stereo not drawn), for which the GI50 in the test with HOP-92 is > 100 µM (inactive); with IGROV-1 it was 38.7 µM (inactive); in the test on K562 it was 30.5 µM (inactive); in the test on SK-MEL-5, 16.9 µM (inactive); with UACC-257, > 100 µM (inactive); in the test with RXF 393 it was > 100 µM (inactive). The GI50 with NCI-H23 was > 100 µM (inactive); with A549, 41.2 µM (inactive); with SF-539, 13.2 µM (inactive); with MOLT-4, 27.2 µM (inactive); in the test with LXFL 529 it was 37.6 µM (inactive); with ACHN, 24.5 µM (inactive). Moreover, the GI50 with CCRF-CEM was 81.8 µM (inactive).
